Assay results: patent US11951089B2, “Pharmaceutical composition for preventing or treating wound or scar, comprising benzbromarone” (INNOVO THERAPEUTICS INC., priority 2020, dated 2024)

What was measured:
Hepatic stellate cell T6 = assay: Sirius red assay, TGF-β1-induced fibrosis in hepatic stellate cell T6; assay type: cell-based; settings: T6, 10 ng/ml TGF-β1 co-treatment, 30 μM; compared to the TGF-β1 treatment group
Method: (§1) Hepatic stellate LX-2 (Elabscience CH), lung epithelial A549 (ATCC US), liver stellate T6 (Elabscience, CH), or skin KEL FIB (ATCC, US) cells were cultured in 24-well tissue culture plates for 18 hours, followed by TGF-beta 10 ng/ml treatment, and then incubated with test compounds for 24 hours. Cells were washed with PBS, fixed with Bouin's solution, and washed twice with distilled water. The fixed cells were stained with Sirius red for 2 hours to observe cellular morphological changes, and then washed with 0.01 N HCl solution. Collagen-bound Sirius red was extracted with 0.1 N NaOH solution, which was then quantified at a wavelength of 570 nm. The inhibitory efficacy of each compound on collagen production was shown as a percentage.
(§2) Hepatic stellate cell T6 was treated with 10 ng/ml TGF-β1 to induce fibrosis, and the test compound was treated simultaneously. The extent of fibrosis inhibition was observed by fixing the cells and staining them with Sirius Red, a collagen-specific stain, to observe morphological changes (FIG. 4A, 4B), and quantified by extracting Sirius Red with 0.1 N NaOH solution (FIG. 5).

[1] = system: Hepatic stellate cell LX-2; assay: Sirius red assay, TGF-β1-induced fibrosis in hepatic stellate cell LX-2; assay type: cell-based; settings: LX-2, 10 ng/ml TGF-β1 co-treatment; compared to the TGF-β1 treatment group; BBR 30 μM, 10 μM (FIG. 3)
Method: as §1
Hepatic stellate cell LX-2 was treated with 10 ng/ml TGF-β1 (Gibco, US) to induce fibrosis, and the benzbromarone (BBR) treatment group was treated with TGF-β1 and benzbromarone (BBR) simultaneously. The extent of fibrosis inhibition was observed by fixing the cells and staining them with Sirius Red, a collagen-specific stain, to observe morphological changes (FIG. 2A, 2B), and quantified by extracting Sirius Red with 0.1 N NaOH solution (FIG. 3).

[2] = system: burn-induced skin scarring; assay: Inhibition of burn-induced skin scarring in minipigs; assay type: in vivo, Yucatan minipigs; settings: 1% ointment once daily topical, day 45 of burn induction
Method: Yucatan minipigs that had been fasted for at least 8 hours were anesthetized using xylazine hydrochloride, midazolam, and propofol. After removing the hair on the trunk and back, the test area was disinfected with povidone iodine solution. Burns were induced by contacting the test area with a 400-gram stainless steel weight for 40 seconds. Burns were applied 2 cm from the spine and 4 cm apart between burn sites. The burn area should not exceed 3.5% of the total animal area. 15 days after burning, the scab was removed and the test compound was applied to the wounds once daily. At 45 days after burn induction, autopsy was performed, and the wounds were fixed in formalin solution and H&E staining was performed to measure the thickness of the dermal layer. The test compound was suspended in propylene glycol (Yakuri pure chemicals, Japan) and made into a homogeneous suspension using an ultrasonic cleaner, which was then diluted in lanolin (Merck, USA) and petroleum jelly (Merck, USA) under 60° C. water bath to prepare an ointment. Each component of the prepared ointment is 1% (w/w) of the test compound, 20% (w/w) of propylene glycol, 15% (w/w) of lanolin, and 64% (w/w) of vaseline. […] The reduction of scar size and wound in the BBR treatment group (BBR 1%) was clearly shown numerically. […] Also, the numerical measurement of the hypertrophy of the dermis layer was shown in FIG. 15B, and the hypertrophy of the dermis layer was the lowest in the BBR treatment group (BBR 1%).

[3] = system: Lung epithelial cells A549; assay: Sirius red assay, TGF-β1-induced fibrosis in lung epithelial cells A549; assay type: cell-based
Method: as §1
as §2, with “Lung epithelial cells A549 were” for “Hepatic stellate cell T6 was”, “staining” for “staining them”, “6A, 6B),” for “4A, 4B),”, “7).” for “5).”

HSP47 = molecular target: T1, HSP47 (Homo sapiens, UniProt P50454); assay: Evaluation of HSP47 activity (inhibition of collagen fibril formation, OD 340 nm); assay type: biochemical; settings: collagen fibril formation in PBS pH 7.4, 37° C.; HSP47 9.45 μg/ml; Prism
T1 construct: purchased GenScript US
T1 sequence (P50454 19-418, species assumed): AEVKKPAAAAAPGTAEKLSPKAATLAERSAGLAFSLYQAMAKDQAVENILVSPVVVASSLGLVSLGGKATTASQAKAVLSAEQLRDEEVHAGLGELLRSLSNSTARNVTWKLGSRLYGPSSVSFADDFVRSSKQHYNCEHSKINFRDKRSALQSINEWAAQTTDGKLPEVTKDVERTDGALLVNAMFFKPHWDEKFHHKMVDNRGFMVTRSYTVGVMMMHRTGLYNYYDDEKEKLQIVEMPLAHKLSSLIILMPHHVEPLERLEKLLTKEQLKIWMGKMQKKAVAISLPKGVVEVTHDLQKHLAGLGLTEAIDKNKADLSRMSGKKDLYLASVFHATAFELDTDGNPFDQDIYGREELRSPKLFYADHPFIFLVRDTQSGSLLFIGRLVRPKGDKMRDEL
Method: Fibrils were formed by adding 180 ul of phosphate-buffered saline (PBS, pH 7.4) solution to 20 ul of collagen dissolved in acidic solution (collagen solution, UK), which was measured at a wavelength of 340 nm. HSP47 (GenScript US) was added at a concentration of 9.45 μg/ml to evaluate HSP47 activity as the degree to which it inhibits fibril formation. Test compound was added with concentrations of 100 μM to 1 μM and the inhibitory activity of HSP47 was calculated as a percentage.
The OD measured when collagen was placed in PBS buffer (pH 7.4) to form fibrils at 37° C. was taken as 100%, and the OD measured when HSP47 and collagen were placed together to form fibrils was taken as 0%. The percentage of inhibition of HSP47 by the test compound at each concentration was measured. IC50 values were calculated using Prism software (Graphpad, USA).

[4] = system: carbon tetrachloride-induced liver fibrosis; assay: Carbon tetrachloride-induced liver fibrosis model in mice; assay type: in vivo; settings: CCl4 4 weeks, oral, twice a day (30 mg/kg BID)
Method: CCl4 was administered intraperitoneally at 50 uL (1:1 corn oil) per mouse three times a week for 4 weeks, and the test compound was suspended in 0.5% methylcellulose and administered orally at a dose of 5 ml/kg daily. As a positive control, obeticholic acid (Medkoo, US) was administered at a dose of 30 mg/kg. Body weight was measured once a week during the study period. 28 days after CCl4 administration, […] were inhalationally anesthetized with ether, and once anesthesia was confirmed, they were laparotomized and blood was drawn using a syringe from the posterior vena cava, and then the abdominal aorta and posterior vena cava were cut to exsanguinate/death. Blood was separated into serum and blood biochemical tests were performed. The liver was removed and weighed, the right lobe was fixed in 10% neutral buffered formalin solution, and the left lobe was divided in half and quick-frozen in liquid nitrogen. The quick-frozen samples were stored in an ultra-low temperature freezer set below −70° C. and used for 4-Hydroxyproline assay. The fixed tissues were subjected to the usual tissue processing procedures such as cutting, dehydration, paraffin embedding, and sectioning to prepare specimens for histopathological examination. Hematoxylin & Eosin (H&E) and Picrosirius red staining were performed, and histopathological changes were observed using optical microscope (Olympus BX53, Japan), and the area of fibrosis was analyzed. To determine the extent of carbon tetrachloride-induced liver tissue damage and liver function, plasma alanine aminotransferase (ALT) and bilirubin levels were analyzed in the plasma collected from autopsy using a blood biochemistry analyzer (7180 Hitachi, Japan). […] As liver fibrosis progresses, collagen is deposited in liver tissue. The content of 4-hydroxyproline in collagen in a carbon tetrachloride-induced injured liver tissue was analyzed to determine the extent of fibrosis.

[5] = system: KEL FIB cells isolated from keloid patients; assay: Sirius red assay, TGF-β1-induced fibrosis in dermal fibroblast KEL FIB cells; assay type: cell-based
Method: as §1
as §2, with “KEL FIB cells (ATCC, USA) isolated from keloid patients were” for “Hepatic stellate cell T6 was”, “8A, 8B),” for “4A, 4B),”, “9).” for “5).”

[6] = 10 ng/ml TGF-β1, Sirius Red quantified

In the case of `CCc1oc2ccccc2c1C(=O)c1cc(Br)c(O)c(Br)c1` [benzbromarone, (3,5-dibromo-4-hydroxyphenyl)-(2-ethyl-1-benzofuran-3-yl)methanone], the “degree of fibrosis (Sirius Red, quantified)” value (Hepatic stellate cell T6) is reported as “significantly reduced”, the “degree of fibrosis (Sirius Red, quantified)” value [1] is reported as “significantly reduced” and the “scar extent compared to positive control triamcinolone 0.1%” value [2] is reported as “reduced”. For the same compound, the “scar size and wound extent compared to control group (Vehicle)” value [2] was “significantly reduced”, the “hypertrophy of the dermis layer (scar tissue thickness, H&E)” value ([2]; versus other groups) was “lowest” and the “fibrosis by Sirius Red staining (morphology)” value ([3]; A549, 10 ng/ml TGF-β1 co-treatment, 30 μM) was “fibrosis was reduced”. The IC50 ([3]; Homo sapiens, A549, 10 ng/ml TGF-β1, Sirius Red OD 570 nm, read-out: IC50 of fibrosis inhibition) was 4.25 µM, the IC50 (HSP47) was 133 µM and the “content of 4-hydroxyproline in liver tissue” value [4] was “statistically significantly reduced”. For the same compound, the “plasma alanine aminotransferase (ALT)” value [4] was “Statistically significant decreases”, the plasma bilirubin [4] was “Statistically significant decreases” and the “fibrosis area of liver tissue” value ([4]; versus obeticholic acid 30 mg/kg) was “comparable result with fibrosis inhibition as the obeticholic acid (OCA) treatment group”. For the same compound, the “concentration at which the fibrosis inhibitory effect began to appear” value [5, 6] was 3 µM, the “concentration from which fibrosis was significantly inhibited” value [5, 6] was at least 10 µM and the “fibrosis by Sirius Red staining (morphology)” value ([5]; 10 ng/ml TGF-β1 co-treatment, 30 μM) was “fibrosis was reduced”.
